Data: patent US7632830B2, “Lactam compounds and pharmaceutical use thereof” (Ajinomoto Co., Inc., priority 2000, dated 2009)

These compounds were tested on adipose cells of rats (assay: Evaluation of the sugar-transporting activity (2-[14C(U)]-deoxy-D-glucose incorporation)). Conditions: concentration having a reinforcing effect corresponding to 50% of the reinforcing effect of insulin (100%); rat adipose cells.
Format: cell-based
Method: After the decapitation and venesection of 6 male Wistar rats (body weight: 150 to 200 g), an incision was made in the abdomen of each rat to extract 6 g in total of epididymal adipose tissues. The tissues were finely cut into 2 mm×2 mm pieces in 6 ml of KRH (Krebs-Ringer Hepes, composition: 130 mM of sodium chloride, 4.7 mM of potassium chloride, 1.2 mM of potassium dihydrogenphosphate, 1.2 mM of magnesium sulfate, 1 mM of calcium chloride and 25 mM of Hepes, pH=7.6) containing 5% of BSA (bovine serum albumin). 24 mg of collagenase (type I) was added thereto and the digestion treatment was conducted for about 40 minutes to obtain about 6 ml of isolated adipose cells. The collagenase was removed by the buffer exchange. 2% BSA/KRH solution was added to the residue for the re-suspension to obtain 45 ml of an adipose cell suspension.
The sugar-transporting activity of the compounds of the present invention was evaluated with reference to a method described in a literature [Annual Review of Biochemistry, Vol. 55, p. 1059 (1986)]. In the test, 200 μl of the adipose cell suspension was poured in each polystyrene test tube, 100 μl of the solution of the test substance (by dilution of 10 mg/ml substance dimethyl sulfoxide solution with KRH) was added thereto, and the obtained mixture was shaken and then cultured at 37° C. for 30 minutes.
The sugar-transporting activity was evaluated by measuring the quantity of 2-[^14C(U)]-deoxy-D-glucose incorporated per a unit time. Namely, 2-[^14C(U)]-deoxy-D-glucose was added to the adipose cell suspension after the pre-culture (the final concentration: 0.5 μCi/sample). 5 minutes after, cytochalasin B (final concentration: 10 μM) was added to the mixture to terminate the sugar transportation. After forming a dinonyl phthalate layer, the obtained mixture was centrifuged to separate the adipose cells from the buffer. The quantity of 2-[^14C(U)]-deoxy-D-glucose contained in the adipose cell layer was determined with a liquid scintillation counter to determine the quantity of the incorporated sugar. In this evaluation system, when insulin (100 nM) having the effect of increasing the sugar transportation was used, the effect was about 7 times as high as that obtained in the insulin-free control group.
The results of the evaluation of the sugar-transporting activity obtained by using 100 μg/ml of each compound of the present invention are shown in Table 6. The sugar transporting activity in Table 6 was evaluated on the basis of the reinforcing effect of insulin (100 nM). […] The symbols in Table 6 are as follows: • No: Example No., and • A: sugar transporting activity.
The results of the evaluation of the sugar-transporting activity obtained by using each compound of the present invention are shown in Table 7. The sugar transporting activity in Table 7 was determined in terms of the concentration (EC50: μg/ml) of a test compound, having a reinforcing effect corresponding to 50% on the basis of the reinforcing effect of insulin having a reinforcing effect of 100%.

SMILES | A: sugar transporting activity (EC50) [µg/mL]
COc1ccccc1[C@@H]1C2=C(CNC2=O)N[C@@H]2CCCC[C@H]2N1C(=O)c1ccncc1 [Example 78] | 18
COc1ccccc1[C@@H]1C2=C(CNC2=O)N[C@@H]2CCCC[C@H]2N1C(=O)c1cnccn1 [Example 79] | 8.6
COC(=O)N1[C@@H]2CCCC[C@H]2NC2=C(C(=O)NC2)[C@H]1c1ccccc1OC [Example 80] | 6
CCOC(=O)N1[C@@H]2CCCC[C@H]2NC2=C(C(=O)NC2)[C@H]1c1ccccc1OC [Example 81] | 4.2
COc1ccccc1[C@@H]1C2=C(CNC2=O)N[C@@H]2CCCC[C@H]2N1C(=O)OCc1ccccc1 [Example 82] | 6
COc1ccccc1[C@@H]1C2=C(CNC2=O)N[C@@H]2CCCC[C@H]2N1C(=O)Oc1ccccc1 [Example 83] | 11
CCNC(=O)N1[C@@H]2CCCC[C@H]2NC2=C(C(=O)NC2)[C@H]1c1ccccc1OC [Example 84] | 3.6
CCCNC(=O)N1[C@@H]2CCCC[C@H]2NC2=C(C(=O)NC2)[C@H]1c1ccccc1OC [Example 85] | 7
CCOc1ccccc1[C@@H]1C2=C(CNC2=O)N[C@@H]2CCCC[C@H]2N1C(C)=O [Example 87] | 15
CCOc1ccccc1[C@@H]1C2=C(CNC2=O)N[C@@H]2CCCC[C@H]2N1C(=O)CC [Example 88] | 1.9
CCCC(=O)N1[C@@H]2CCCC[C@H]2NC2=C(C(=O)NC2)[C@H]1c1ccccc1OCC [Example 89] | 1.3
CCOc1ccccc1[C@@H]1C2=C(CNC2=O)N[C@@H]2CCCC[C@H]2N1C(=O)C(F)(F)F [Example 90] | 5
CCOc1ccccc1[C@@H]1C2=C(CNC2=O)N[C@@H]2CCCC[C@H]2N1C(=O)COC(C)=O [Example 91] | 13
CCOc1ccccc1[C@@H]1C2=C(CNC2=O)N[C@@H]2CCCC[C@H]2N1C(=O)CO [Example 92] | 3.8
CCOc1ccccc1[C@@H]1C2=C(CNC2=O)N[C@@H]2CCCC[C@H]2N1C(=O)COC [Example 93] | 3.6
CCOCC(=O)N1[C@@H]2CCCC[C@H]2NC2=C(C(=O)NC2)[C@H]1c1ccccc1OCC [Example 94] | 4
CCOc1ccccc1[C@@H]1C2=C(CNC2=O)N[C@@H]2CCCC[C@H]2N1C(=O)OC [Example 95] | 1.5
CCOC(=O)N1[C@@H]2CCCC[C@H]2NC2=C(C(=O)NC2)[C@H]1c1ccccc1OCC [Example 96] | 7
CCNC(=O)N1[C@@H]2CCCC[C@H]2NC2=C(C(=O)NC2)[C@H]1c1ccccc1OCC [Example 97] | 12
CC(=O)N1[C@@H]2CCCC[C@H]2NC2=C(C(=O)NC2)[C@H]1c1ccccc1OC(C)C [Example 98] | 14
CCC(=O)N1[C@@H]2CCCC[C@H]2NC2=C(C(=O)NC2)[C@H]1c1ccccc1OC(C)C [Example 99] | 2
CCOCC(=O)N1[C@@H]2CCCC[C@H]2NC2=C(C(=O)NC2)[C@H]1c1ccccc1OC(C)C [Example 100] | 2
COC(=O)N1[C@@H]2CCCC[C@H]2NC2=C(C(=O)NC2)[C@H]1c1ccccc1OC(C)C [Example 101] | 4.8
CCOCC(=O)N1[C@@H]2CCCC[C@H]2NC2=C(C(=O)NC2)[C@H]1c1ccccc1OCc1ccccc1 [Example 102] | 4
CC(=O)N1[C@@H]2CCCC[C@H]2NC2=C(C(=O)NC2)[C@H]1c1ccccc1OCc1ccccc1 [Example 103] | 3.6
CCOCC(=O)N1[C@@H]2CCCC[C@H]2NC2=C(C(=O)NC2)[C@H]1c1ccccc1O [Example 104] | 1
CC(=O)N1[C@@H]2CCCC[C@H]2NC2=C(C(=O)NC2)[C@H]1c1ccccc1O [Example 105] | 3.7

SMILES | A: sugar transporting activity (EC50) [µg/mL]
CCC(=O)N1[C@@H]2CCCC[C@H]2NC2=C(C(=O)NC2)[C@H]1c1ccc(F)cc1OC [Example 107] | 0.82
CCOCC(=O)N1[C@@H]2CCCC[C@H]2NC2=C(C(=O)NC2)[C@H]1c1ccc(F)cc1OC [Example 108] | 7.8
COc1cc(F)ccc1[C@@H]1C2=C(CNC2=O)N[C@@H]2CCCC[C@H]2N1C(C)=O [Example 109] | 8
COc1cc(Cl)ccc1[C@@H]1C2=C(CNC2=O)N[C@@H]2CCCC[C@H]2N1C(C)=O [Example 110] | 6
COc1ccc(F)cc1[C@@H]1C2=C(CNC2=O)N[C@@H]2CCCC[C@H]2N1C(C)=O [Example 113] | 10
COc1cccc([C@@H]2C3=C(CNC3=O)N[C@@H]3CCCC[C@H]3N2C(C)=O)c1OC [Example 114] | 12
COc1ccc([C@@H]2C3=C(CNC3=O)N[C@@H]3CCCC[C@H]3N2C(C)=O)c(OC)c1 [Example 115] | 10
Cc1ccccc1[C@@H]1C2=C(CNC2=O)N[C@@H]2CCCC[C@H]2N1C(=O)C(F)(F)F [Example 117] | 6
CCC(=O)N1[C@@H]2CCCC[C@H]2NC2=C(C(=O)NC2)[C@H]1c1ccccc1C [Example 118] | 2
CCOCC(=O)N1[C@@H]2CCCC[C@H]2NC2=C(C(=O)NC2)[C@H]1c1ccccc1C [Example 119] | 4
CC(=O)OCC(=O)N1[C@@H]2CCCC[C@H]2NC2=C(C(=O)NC2)[C@H]1c1ccccc1C [Example 120] | 8
Cc1ccccc1[C@@H]1C2=C(CNC2=O)N[C@@H]2CCCC[C@H]2N1C(=O)CO [Example 121] | 2.5
COCC(=O)N1[C@@H]2CCCC[C@H]2NC2=C(C(=O)NC2)[C@H]1c1ccccc1C [Example 122] | 6
CC(=O)N1[C@@H]2CCCC[C@H]2NC2=C(C(=O)NC2)[C@H]1c1ccccc1C [Example 123] | 5
CCOC(=O)N1[C@@H]2CCCC[C@H]2NC2=C(C(=O)NC2)[C@H]1c1ccccc1C [Example 124] | 7
CCCC(=O)N1[C@@H]2CCCC[C@H]2NC2=C(C(=O)NC2)[C@H]1c1ccccc1CC [Example 126] | 5
CCC(=O)N1[C@@H]2CCCC[C@H]2NC2=C(C(=O)NC2)[C@H]1c1ccccc1CC [Example 127] | 2.2
CCOCC(=O)N1[C@@H]2CCCC[C@H]2NC2=C(C(=O)NC2)[C@H]1c1ccccc1CC [Example 129] | 5.4
CCc1ccccc1[C@@H]1C2=C(CNC2=O)N[C@@H]2CCCC[C@H]2N1C(=O)COC [Example 130] | 6
CCc1ccccc1[C@@H]1C2=C(CNC2=O)N[C@@H]2CCCC[C@H]2N1C(C)=O [Example 131] | 4
CCc1ccccc1[C@@H]1C2=C(CNC2=O)N[C@@H]2CCCC[C@H]2N1C(=O)OC [Example 132] | 4
O=C1NCC2=C1[C@@H](c1ccccc1Br)N(C(=O)CC(F)(F)F)[C@@H]1CCCC[C@H]1N2 [Example 134] | 0.5
CCC(=O)N1[C@@H]2CCCC[C@H]2NC2=C(C(=O)NC2)[C@H]1c1ccccc1Br [Example 135] | 1.5
COC(=O)CC(=O)N1[C@@H]2CCCC[C@H]2NC2=C(C(=O)NC2)[C@H]1c1ccccc1Br [Example 136] | 1.5
CCOCC(=O)N1[C@@H]2CCCC[C@H]2NC2=C(C(=O)NC2)[C@H]1c1ccccc1Br [Example 137] | 8.6
COCC(=O)N1[C@@H]2CCCC[C@H]2NC2=C(C(=O)NC2)[C@H]1c1ccccc1Br [Example 138] | 6
CC(=O)N1[C@@H]2CCCC[C@H]2NC2=C(C(=O)NC2)[C@H]1c1ccccc1Br [Example 139] | 6
